Results reported in patent US20230218654A1, “COMPOSITIONS AND METHODS FOR TREATING HYPERGLYCEMIA IN TYPE-2 DIABETES” (The Board of Regents of the university of Oklahoma, priority 2020, published 2023).
Entries after “also recorded” stand apart in the source; their conditions may differ.

Tested on: male C57BL/6J mice
Test: Pyruvate tolerance test (PTT)
Format: in vivo
Conditions: 60 mg/kg SQ twice; for blood glucose excursion / hepatic glucose production in PTT: 6 h fast, 60 mg/kg
Method: On the day of testing, mice were fasted for 6 h (from 9am to 3 pm). Mice were then given 2 g/kg sodium pyruvate via IP injection. Blood glucose was measured with an UltraTouch glucometer in time course over a 120-minute period.
Mice were treated with 2 doses of MLN4924 as described. After the second injection at 9 am, mice were fasted for 6 h from 9 am to 3 pm. Mice were injected intraperitoneally […] for PTT, and 0.5 U/kg insulin for ITT. Blood glucose was measured with a OneTouch Ultra glucose meter.

NS(=O)(=O)OC[C@@H]1C[C@@H](n2ccc3c(N[C@H]4CCc5ccccc54)ncnc32)C[C@@H]1O [MLN4924, ((1S,2S,4R)-4-(4-((1S)-2,3-dihydro-1H-inden-1-ylamino)-7H-pyrrolo[2,3-d]pyrimidin-7-yl)-2-hydroxycyclopentyl) methyl sulfamate]
peak blood glucose at 30 minutes post pyruvate challenge (vs vehicle): significantly lower
blood glucose excursion / hepatic glucose production in PTT (4-week WD-fed mice): significantly lower
blood glucose excursion / hepatic glucose production in PTT (4-week chow-fed mice): significantly lower; also recorded: significantly reduced hepatic glucose production
